# Experimental data taken from patent publication US20250231185A1, “Coronavirus T Cell Epitopes, Megapools and Uses Thereof” (La Jolla Institute for Immunology, priority 2021, published 2025).
# Tested on: CD8+ T cells
# Assay: Meta-analysis of published SARS-CoV-2 CD8 T cell epitope data curated in the IEDB (25 studies)
# Assay type: cell-based, human
# [1] = CD8S (D) Megapool, antigen S, dominant = recognized in 3 or more donors/studies
# [2] = SARS-CoV-2-derived CD8 epitopes, dominant = recognized by 3 or more donors/different studies
# [3] = CD8-restricted SARS-CoV-2 epitopes, Yes = recognized by 3 or more donors/different studies
# [4] = CD8 epitopes, Yes = recognized by 3 or more donors/different studies
substance,measurement,setting,value
1484 (KCYGVSPTK) [compound 1484],Dominant,[1],Yes (more dominant epitopes are defined by being recognized by 3 or more donors/different studies)
772 (QLMCQPILLL) [compound 772],Dominant,[2],Yes (more dominant epitopes are defined by being recognized by 3 or more donors/different studies)
1133 (VYFLQSINF) [compound 1133],Dominant,[3],Yes (more dominant epitopes are defined by being recognized by 3 or more donors/different studies)
1498 (FTISVTTEIL) [compound 1498],Dominant,[1],Yes (more dominant epitopes are defined by being recognized by 3 or more donors/different studies)
1499 (TEILPVSMTK) [compound 1499],Dominant,[1],Yes (more dominant epitopes are defined by being recognized by 3 or more donors/different studies)
737 (SLDTYPSLETI) [compound 737],Dominant,[2],Yes (more dominant epitopes are defined by being recognized by 3 or more donors/different studies)
1511 (YHLMSFPQSA) [compound 1511],Dominant,[1],Yes (more dominant epitopes are defined by being recognized by 3 or more donors/different studies)
451 (SYFIASFRLFA) [compound 451],Dominant,[4],Yes (more dominant epitopes are defined by being recognized by 3 or more donors/different studies)
1519 (KWPWYIWLGF) [compound 1519],Dominant,[1],Yes (more dominant epitopes are defined by being recognized by 3 or more donors/different studies)
1521 (SEPVLKGVKL) [compound 1521],Dominant,[1],Yes (more dominant epitopes are defined by being recognized by 3 or more donors/different studies)
1497 (SIIAYTMSL) [compound 1497],Dominant,[1],Yes (more dominant epitopes are defined by being recognized by 3 or more donors/different studies)
455 (RLFARTRSMW) [compound 455],Dominant,[4],Yes (more dominant epitopes are defined by being recognized by 3 or more donors/different studies)
816 (SLRPDTRYVL) [compound 816],Dominant,[2],Yes (more dominant epitopes are defined by being recognized by 3 or more donors/different studies)
833 (TFYLTNDVSFL) [compound 833],Dominant,[2],Yes (more dominant epitopes are defined by being recognized by 3 or more donors/different studies)
1297 (KLPDDFTGCV) [compound 1297],Dominant,[3],Yes (more dominant epitopes are defined by being recognized by 3 or more donors/different studies)
1245 (FVFKNIDGY) [compound 1245],Dominant,[3],Yes (more dominant epitopes are defined by being recognized by 3 or more donors/different studies)
808 (FLPRVFSAV) [compound 808],Dominant,[2],Yes (more dominant epitopes are defined by being recognized by 3 or more donors/different studies)
484 (RYRIGNYKL) [compound 484],Dominant,[4],Yes (more dominant epitopes are defined by being recognized by 3 or more donors/different studies)
1176 (KLFIRQEEV) [compound 1176],Dominant,[3],Yes (more dominant epitopes are defined by being recognized by 3 or more donors/different studies)
1225 (GVYFASTEK) [compound 1225],Dominant,[3],Yes (more dominant epitopes are defined by being recognized by 3 or more donors/different studies)
1517 (NLNESLIDL) [compound 1517],Dominant,[1],Yes (more dominant epitopes are defined by being recognized by 3 or more donors/different studies)
1500 (TECSNLLLQY) [compound 1500],Dominant,[1],Yes (more dominant epitopes are defined by being recognized by 3 or more donors/different studies)
1174 (RARSVSPKL) [compound 1174],Dominant,[3],Yes (more dominant epitopes are defined by being recognized by 3 or more donors/different studies)
883 (NYSGVVTTVMF) [compound 883],Dominant,[2],Yes (more dominant epitopes are defined by being recognized by 3 or more donors/different studies)
1494 (SPRRARSVA) [compound 1494],Dominant,[1],Yes (more dominant epitopes are defined by being recognized by 3 or more donors/different studies)
420 (SLVKPSFYV) [compound 420],Dominant,[4],Yes (more dominant epitopes are defined by being recognized by 3 or more donors/different studies)
1490 (FQPTNGVGY) [compound 1490],Dominant,[1],Yes (more dominant epitopes are defined by being recognized by 3 or more donors/different studies)
747 (ILFTRFFYV) [compound 747],Dominant,[2],Yes (more dominant epitopes are defined by being recognized by 3 or more donors/different studies)
1249 (TPINLVRDL) [compound 1249],Dominant,[3],Yes (more dominant epitopes are defined by being recognized by 3 or more donors/different studies)
1111 (IVGVALLAVF) [compound 1111],Dominant,[3],Yes (more dominant epitopes are defined by being recognized by 3 or more donors/different studies)
1488 (NYNYLYRLF) [compound 1488],Dominant,[1],Yes (more dominant epitopes are defined by being recognized by 3 or more donors/different studies)
1481 (YLQPRTFLL) [compound 1481],Dominant,[1],Yes (more dominant epitopes are defined by being recognized by 3 or more donors/different studies)
471 (TVATSRTLSYYK) [compound 471],Dominant,[4],Yes (more dominant epitopes are defined by being recognized by 3 or more donors/different studies)
818 (RPDTRYVL) [compound 818],Dominant,[2],Yes (more dominant epitopes are defined by being recognized by 3 or more donors/different studies)
1109 (IPIQASLPF) [compound 1109],Dominant,[3],Yes (more dominant epitopes are defined by being recognized by 3 or more donors/different studies)
1238 (SSANNCTFEY) [compound 1238],Dominant,[3],Yes (more dominant epitopes are defined by being recognized by 3 or more donors/different studies)
1287 (CVADYSVLY) [compound 1287],Dominant,[3],Yes (more dominant epitopes are defined by being recognized by 3 or more donors/different studies)
498 (RIRGGDGKMK) [compound 498],Dominant,[4],Yes (more dominant epitopes are defined by being recognized by 3 or more donors/different studies)
1482 (RISNCVADY) [compound 1482],Dominant,[1],Yes (more dominant epitopes are defined by being recognized by 3 or more donors/different studies)
463 (SELVIGAVIL) [compound 463],Dominant,[4],Yes (more dominant epitopes are defined by being recognized by 3 or more donors/different studies)
1248 (IYSKHTPINL) [compound 1248],Dominant,[3],Yes (more dominant epitopes are defined by being recognized by 3 or more donors/different studies)
491 (NTASWFTAL) [compound 491],Dominant,[4],Yes (more dominant epitopes are defined by being recognized by 3 or more donors/different studies)
425 (GTITVEELK) [compound 425],Dominant,[4],Yes (more dominant epitopes are defined by being recognized by 3 or more donors/different studies)
1181 (IMLIIFWFSL) [compound 1181],Dominant,[3],Yes (more dominant epitopes are defined by being recognized by 3 or more donors/different studies)
1229 (FCNDPFLGVYY) [compound 1229],Dominant,[3],Yes (more dominant epitopes are defined by being recognized by 3 or more donors/different studies)
1104 (MDLFMRIFTI) [compound 1104],Dominant,[3],Yes (more dominant epitopes are defined by being recognized by 3 or more donors/different studies)
1469 (YTNSFTRGVY) [compound 1469],Dominant,[1],Yes (more dominant epitopes are defined by being recognized by 3 or more donors/different studies)
1518 (QYIKWPWYI) [compound 1518],Dominant,[1],Yes (more dominant epitopes are defined by being recognized by 3 or more donors/different studies)
745 (AYILFTRFFYV) [compound 745],Dominant,[2],Yes (more dominant epitopes are defined by being recognized by 3 or more donors/different studies)
810 (FSAVGNICY) [compound 810],Dominant,[2],Yes (more dominant epitopes are defined by being recognized by 3 or more donors/different studies)
1258 (LLALHRSYL) [compound 1258],Dominant,[3],Yes (more dominant epitopes are defined by being recognized by 3 or more donors/different studies)
1496 (VASQSIIAY) [compound 1496],Dominant,[1],Yes (more dominant epitopes are defined by being recognized by 3 or more donors/different studies)
1493 (IGAEHVNNSY) [compound 1493],Dominant,[1],Yes (more dominant epitopes are defined by being recognized by 3 or more donors/different studies)
754 (YIFFASFYY) [compound 754],Dominant,[2],Yes (more dominant epitopes are defined by being recognized by 3 or more donors/different studies)
1506 (TQNVLYENQK) [compound 1506],Dominant,[1],Yes (more dominant epitopes are defined by being recognized by 3 or more donors/different studies)
1474 (TLDSKTQSL) [compound 1474],Dominant,[1],Yes (more dominant epitopes are defined by being recognized by 3 or more donors/different studies)
466 (AVILRGHLR) [compound 466],Dominant,[4],Yes (more dominant epitopes are defined by being recognized by 3 or more donors/different studies)
1178 (VQELYSPIFLIV) [compound 1178],Dominant,[3],Yes (more dominant epitopes are defined by being recognized by 3 or more donors/different studies)
1504 (MIAQYTSAL) [compound 1504],Dominant,[1],Yes (more dominant epitopes are defined by being recognized by 3 or more donors/different studies)
896 (SEFSSLPSY) [compound 896],Dominant,[2],Yes (more dominant epitopes are defined by being recognized by 3 or more donors/different studies)
872 (FLLPSLATV) [compound 872],Dominant,[2],Yes (more dominant epitopes are defined by being recognized by 3 or more donors/different studies)
1119 (ALSKGVHFV) [compound 1119],Dominant,[3],Yes (more dominant epitopes are defined by being recognized by 3 or more donors/different studies)
427 (FLFLTWICL) [compound 427],Dominant,[4],Yes (more dominant epitopes are defined by being recognized by 3 or more donors/different studies)
1480 (WTAGAAAYY) [compound 1480],Dominant,[1],Yes (more dominant epitopes are defined by being recognized by 3 or more donors/different studies)
1228 (TLDSKTQSL) [compound 1228],Dominant,[3],Yes (more dominant epitopes are defined by being recognized by 3 or more donors/different studies)
